The source of these data is ChEMBL document CHEMBL4837198, “Design, synthesis and biological evaluation of 1H-indazole derivatives as novel ASK1 inhibitors” (Eur J Med Chem, 2021).

Series [1] addresses T1, Mitogen-activated protein kinase kinase kinase 5 (Homo sapiens, UniProt Q99683).
T1 sequence (Q99683 whole entry): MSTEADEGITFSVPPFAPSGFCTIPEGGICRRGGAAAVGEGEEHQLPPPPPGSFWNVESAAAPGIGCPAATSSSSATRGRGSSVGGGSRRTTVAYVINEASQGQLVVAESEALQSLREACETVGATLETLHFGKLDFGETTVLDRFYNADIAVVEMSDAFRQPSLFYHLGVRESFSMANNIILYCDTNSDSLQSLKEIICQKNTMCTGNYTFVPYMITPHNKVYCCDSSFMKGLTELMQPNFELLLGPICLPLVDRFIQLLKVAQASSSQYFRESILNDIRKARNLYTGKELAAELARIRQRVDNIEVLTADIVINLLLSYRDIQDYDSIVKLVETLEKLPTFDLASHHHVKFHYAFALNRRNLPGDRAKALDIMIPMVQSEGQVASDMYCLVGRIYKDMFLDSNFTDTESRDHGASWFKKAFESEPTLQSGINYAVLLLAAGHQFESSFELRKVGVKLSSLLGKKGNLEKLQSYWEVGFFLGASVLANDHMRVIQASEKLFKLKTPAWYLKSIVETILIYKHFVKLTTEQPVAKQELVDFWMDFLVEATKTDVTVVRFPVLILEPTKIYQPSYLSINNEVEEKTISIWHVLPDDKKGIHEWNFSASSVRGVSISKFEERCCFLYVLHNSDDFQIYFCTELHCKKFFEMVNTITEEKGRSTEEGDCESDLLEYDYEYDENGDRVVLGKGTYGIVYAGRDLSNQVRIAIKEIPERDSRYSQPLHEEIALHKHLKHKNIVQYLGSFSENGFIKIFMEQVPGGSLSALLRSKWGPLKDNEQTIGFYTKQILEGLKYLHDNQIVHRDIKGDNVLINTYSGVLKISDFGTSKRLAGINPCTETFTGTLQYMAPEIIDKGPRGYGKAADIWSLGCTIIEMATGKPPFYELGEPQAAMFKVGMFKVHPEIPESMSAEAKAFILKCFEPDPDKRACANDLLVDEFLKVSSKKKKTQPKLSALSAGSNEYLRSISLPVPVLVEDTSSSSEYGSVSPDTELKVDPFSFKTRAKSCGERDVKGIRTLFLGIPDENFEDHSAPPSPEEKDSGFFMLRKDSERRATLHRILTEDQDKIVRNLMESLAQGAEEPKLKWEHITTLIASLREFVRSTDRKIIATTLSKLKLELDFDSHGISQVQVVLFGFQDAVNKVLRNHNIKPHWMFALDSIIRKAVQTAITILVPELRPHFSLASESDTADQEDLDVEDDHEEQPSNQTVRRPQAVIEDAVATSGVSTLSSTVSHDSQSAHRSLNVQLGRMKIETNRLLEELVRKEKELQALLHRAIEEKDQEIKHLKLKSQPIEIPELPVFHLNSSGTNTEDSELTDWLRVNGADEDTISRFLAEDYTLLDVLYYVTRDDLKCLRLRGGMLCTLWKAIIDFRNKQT
The experiment in a line: Inhibition of human full length recombinant ASK1 using STK-Substrate-3 biotin as substrate in presence of ATP measured after 2 hrs by […] kinase assay.

The target in series [2] is T1, Mitogen-activated protein kinase kinase kinase 5. The experiment in a line: Inhibition of ASK1 in human HEK293 cells transfected with AP1 assessed as inhibition of AP1-induced firefly luciferase activity preincubated for 1 hr followed by PMA stimulation and measured after 6 hrs by luciferase reporter assay. The series is classed as cell-based.
Series [3] has as its system HT-29. The experiment in a line: Induction cell survival in TNFalpha-induced human HT-29 cells at 10 uM pretreated for 24 hrs followed by TNFalpha stimulation measured after 2 hrs by CCK8 assay. In kind it is functional, cell-based.
In series [4] the test system is HT-29. The experiment in a line: Cytotoxicity against human HT-29 cells assessed as cell survival at 25 uM incubated for 24 hrs by CCK8 assay. The series is classed as cell-based. The settings on record: ht-29, 24 h.
Series [5] deals with HT-29. As to the kind of experiment: Antiinflammatory activity in human HT-29 cells assessed as suppression of […]-stimulated p-ASK1 expression by Western blot analysis. In kind it is functional, cell-based.
Series [6] relates to HT-29. The experiment in a line: Antiinflammatory activity in human HT-29 cells assessed as suppression of […]-stimulated p-P38 expression by Western blot analysis. In kind it is functional, cell-based.
The subject of series [7] is HT-29. As to the kind of experiment: Antiinflammatory activity in human HT-29 cells assessed as suppression of […]-stimulated p-JNK expression by Western blot analysis. The series is classed as functional, cell-based.
The subject of series [8] is HT-29. As to the kind of experiment: Antiapoptotic activity against in human HT-29 cells assessed as inhibition of TNFalpha-induced upregulation of Bax expression by Western blot analysis. The series is classed as functional, cell-based.
Series [9] concerns HT-29. As to the kind of experiment: Antiapoptotic activity against in human HT-29 cells assessed as inhibition of TNFalpha-induced down regulation of Bcl2 expression by Western blot analysis. The series is classed as functional, cell-based.
In series [10] the test system is HT-29. As to the kind of experiment: Antiapoptotic activity against in human HT-29 cells assessed as inhibition of TNFalpha-induced Bax/ Bcl2 ratio by Western blot analysis. In kind it is functional, cell-based.
Series [11] deals with HT-29. As to the kind of experiment: Antiapoptotic activity against in human HT-29 cells assessed as inhibition of TNFalpha-induced caspase 3 activity by Western blot analysis. The series is classed as functional, cell-based.

Activity calls are given as the source filed them. The calls are words filed in the database; no cut-off is given here.

Regarding `CC(C)n1cnnc1-c1ccc2[nH]nc(-c3cccc(NC(=O)c4ccc(C(F)(F)F)cc4)c3)c2c1`, the IC50 in series [1] turned out to be 197 nM.

As for `CCOC(C)n1cc(-c2cncc(-c3n[nH]c4ccc(-c5nncn5C(C)C)cc34)c2)cn1` (stereo unspecified), the IC50 in series [1] was determined as 277 nM.

As to `c1cc(-c2n[nH]c3ccc(-c4nncn4C4CCCC4)cc23)cc(-n2cnc(C3CC3)c2)c1`, the IC50 in [1] stood at 54.1 nM; in series [2] it was 5500 nM.

For `CCOC(C)n1cc(-c2cccc(-c3n[nH]c4ccc(-c5nncn5C(C)C)cc34)c2)cn1` (stereo unspecified), the IC50 came out at 29.9 nM in series [1] and 4460 nM in series [2]. In addition, the result in series [3], in [5], in series [6], in series [7], in series [8] and in [9] was Active. In addition, the result in series [10] and in series [11] was Active. Further, the Activity result in [4] is on record as “Non-Toxic”.

As for `COc1cc(-c2n[nH]c3ccc(-c4nncn4C(C)C)cc23)cc(-n2cnc(C3CC3)c2)c1`, the results for the IC50 in series [1] and in series [2] were 48.6 nM and 11300 nM, respectively.

As for `CC(C)n1cnnc1-c1ccc2[nH]nc(-c3cccc(-c4ccnn4C)c3)c2c1`, the IC50 in [1] was found to be 855 nM.

For `Cc1cc(F)c(C(=O)Nc2cccc(-c3nncn3C(C)C)n2)cc1-n1cnc(C2CC2)c1` [SELONSERTIB], the outcome in [3], in series [5], in [6], in [7], in [8] and in [9] was Active. Moreover, the result in [10] and in series [11] was Active. The Activity entry in [4] was “Non-Toxic”.

With `CC(C)n1cnnc1-c1ccc2[nH]nc(-c3cccc(-c4cccnc4)c3)c2c1`, the half-inhibitory concentration (IC50) in series [1] came out at 283 nM.

For the molecule `CC(C)n1cnnc1-c1ccc2[nH]nc(-c3cccc(-c4cnn(C5CCOCC5)c4)c3)c2c1`, the IC50 in [1] came to 50.1 nM; in [2] it was 12100 nM.

On to `CC(C)n1cnnc1-c1ccc2[nH]nc(-c3cc(N4CCOCC4)cc(-n4cnc(C5CC5)c4)c3)c2c1`, for which, in series [1], the IC50 came to 75.1 nM.

Turning to `COCCNC(=O)c1cccc(-c2n[nH]c3ccc(-c4nncn4C(C)C)cc23)c1`, the half-inhibitory concentration (IC50) in series [1] came out at 245 nM.

Take `CC(C)n1cnnc1-c1ccc2[nH]nc(-c3cccc(-c4cnn(C)c4)c3)c2c1`: the IC50 worked out at 63.6 nM in series [1] and 8330 nM in [2].

On to `CCS(=O)(=O)Nc1cccc(-c2n[nH]c3ccc(-c4nncn4C(C)C)cc23)c1`, for which, in series [1], the half-inhibitory concentration (IC50) amounted to 19.8 nM.

Turning to `CC(C)n1cnnc1-c1ccc2[nH]nc(-c3cccc(C(N)=O)c3)c2c1`, the half-maximal inhibitory concentration (IC50) in series [1] worked out at 74.2 nM.

In the case of `COc1ccc(-n2cnc(C3CC3)c2)cc1-c1n[nH]c2ccc(-c3nncn3C(C)C)cc12`, in series [1], the IC50 came out at 270 nM.

On to `COCn1cc(-c2cccc(-c3n[nH]c4ccc(-c5nncn5C(C)C)cc34)c2)cn1`, for which the figures for the IC50 in series [1] and in [2] were 26.9 nM and 9810 nM, respectively.

Regarding `CC(C)n1cnnc1-c1ccc2[nH]nc(-c3cccc(C(=O)Nc4cnn(C)c4)c3)c2c1`, the IC50 in series [1] amounted to 144 nM.

With `c1cc(-c2n[nH]c3ccc(-c4nncn4C4CCCCC4)cc23)cc(-n2cnc(C3CC3)c2)c1`, the IC50 in series [1] was found to be 243 nM.

`CC(C)n1cnnc1-c1ccc2[nH]nc(-c3cccc(-n4cnc(C5CC5)n4)c3)c2c1`: the half-maximal inhibitory concentration (IC50) in series [1] turned out to be 37 nM; in series [2] it was 8880 nM.

For the molecule `CC(C)n1cnnc1-c1ccc2[nH]nc(-c3cccc(-n4cnc(C5CC5)c4)c3)c2c1`, the IC50 in [1] is 62.2 nM.

For `CC(C)n1cnnc1-c1ccc2[nH]nc(-c3ccc(N4CCOCC4)c(-n4cnc(C5CC5)c4)c3)c2c1`, the 50% inhibitory concentration (IC50) came out at 31.8 nM in [1] and 11600 nM in series [2].

For the molecule `CC(C)n1cnnc1-c1ccc2[nH]nc(-c3cccc(C(=O)NC4CC4)c3)c2c1`, the IC50 in [1] came to 271 nM.

For the molecule `O=C(Nc1cccc(-c2n[nH]c3ccc(-c4nnc[nH]4)cc23)c1)c1ccc(C(F)(F)F)cc1`, the IC50 in [1] was found to be 532 nM.

For `c1cc(-c2n[nH]c3ccc(-c4cn[nH]c4)cc23)cc(-n2cnc(C3CC3)c2)c1`, the IC50 in [1] is 275 nM.

As for `c1cc(-c2n[nH]c3ccc(-c4nncn4C4CCC4)cc23)cc(-n2cnc(C3CC3)c2)c1`, the IC50 in [1] is 70 nM; in series [2], 7280 nM.

As to `c1cc(-c2n[nH]c3ccc(-c4nncn4C4CC4)cc23)cc(-n2cnc(C3CC3)c2)c1`, the IC50 came out at 50 nM in series [1] and 7040 nM in series [2].

For the molecule `CC(C)n1cnnc1-c1ccc2[nH]nc(-c3cccc(S(C)(=O)=O)c3)c2c1`, the IC50 in series [1] turned out to be 733 nM.

As for `Cc1ccc(-c2n[nH]c3ccc(-c4nncn4C(C)C)cc23)cc1-n1cnc(C2CC2)c1`, the 50% inhibitory concentration (IC50) in series [1] turned out to be 56.9 nM; in series [2], 8730 nM.
